# Values of other authors, collected in patent US20020111317A1, “Sixteen-membered macrolide compounds” (priority 2000, published 2002).
# Assays:
# wildtype ribosomes = conditions: read-out: Kd using wildtype ribosomes
# [1] = target: methylated ribosome (e.g., A2058G mutant); conditions: read-out: Kd using methylated ribosome
Structure (SMILES),Kd (wildtype ribosomes),Kd [1]
CC[C@H]1OC(=O)[C@H](C)[C@@H](O[C@H]2C[C@@](C)(OC)[C@@H](O)[C@H](C)O2)[C@H](C)[C@@H](O[C@@H]2O[C@H](C)C[C@H](N(C)C)[C@H]2O)[C@](C)(O)C[C@@H](C)C(=O)[C@H](C)[C@@H](O)[C@]1(C)O [erythromycin A],~0.014 µM,~190 µM
CC[C@H]1OC(=O)[C@H](C)C(=O)[C@H](C)[C@@H](O[C@@H]2O[C@H](C)C[C@H](N(C)C)[C@H]2O)[C@](C)(OC)C[C@@H](C)C(=O)[C@H](C)[C@H]2N(CCCCn3cnc(-c4cccnc4)c3)C(=O)O[C@]12C [telithromycin],~0.0013 µM,~0.058 µM
